In the supplement of paper PMC10307832:

Experiments:
[1] = compound: CN1C=C(C2=CC=CC=C21)/C=C\3/C4=C(C=CC=N4)NC3=O; experiment: relative viability (nuclei count vs DMSO), 5 days (fraction); higher = more cells survive
Method in brief: (§1)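 On vehicle-anchored 1536-well plates, lung cancer cell lines held overnight at 37 °C were pinned with five library-drug doses (not always all listed) spaced by √10. With no medium change over 5 days, they were then fixed, permeabilised and Hoechst-stained in one step and imaged at 4×. MetaXpress counted nuclei, and viability is the median across plates of treated-well over vehicle-well nuclei. Acceptance needed control CV below 25% and at least one doubling.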

Trametinib = compound: CC(=O)Nc1cccc(-n2c(=O)n(C3CC3)c(=O)c3c(Nc4ccc(I)cc4F)n(C)c(=O)c(C)c32)c1 [Trametinib]; experiment: as above
Method in brief: as §1

Cell Line | relative viability ([1]; 0.02 µM) | relative viability ([1]; 0.06325 µM) | relative viability ([1]; 0.2 µM) | relative viability ([1]; 0.6325 µM) | relative viability ([1]; 2 µM) | relative viability (Trametinib; 0.0025 µM) | relative viability (Trametinib; 0.007906 µM) | relative viability (Trametinib; 0.02 µM, anchor plate) | relative viability (Trametinib; 0.025 µM) | relative viability (Trametinib; 0.07906 µM) | relative viability (Trametinib; 0.25 µM)
NCI-H322M | 0.854 | 0.93 | 0.787 | 0.973 | 0.956 | 0.81 | 0.717 | 0.519 | 0.603 | 0.556 | 0.432
NCI-H358 | 0.907 | 0.931 | 0.916 | 0.891 | 0.938 | 0.643 | 0.472 | 0.137 | 0.328 | 0.27 | 0.259
NCI-H441 | 1.19 | 0.935 | 1.08 | 1.01 | 1.02 | 0.959 | 0.908 | 0.522 | 0.667 | 0.605 | 0.246
NCI-H460 | 1.04 | 0.98 | 0.973 | 0.992 | 0.947 | 0.982 | 0.969 | 0.159 | 0.668 | 0.339 | 0.12
NCI-H520 | 0.967 | 0.895 | 1.03 | 0.952 | 0.965 | 0.86 | 1.06 | 0.735 | 0.924 | 0.949 | 0.623
NCI-H522 | 0.89 | 1.13 | 0.869 | 0.944 | 0.883 | 1.01 | 1.04 | 0.776 | 0.595 | 0.756 | 0.63
NCI-H596 | 0.985 | 0.998 | 0.791 | 0.982 | 0.993 | 0.934 | 0.872 | 0.787 | 0.802 | 0.712 | 0.47
NCI-H647 | 0.946 | 0.863 | 0.656 | 0.784 | 0.827 | 0.837 | 0.754 | 0.516 | 0.588 | 0.554 | 0.293
NCI-H650 | 0.968 | 0.915 | – | 0.84 | 0.846 | 1.1 | 1.24 | 0.98 | 1.08 | 0.957 | 0.623
NCI-H661 | 0.999 | 0.986 | 0.985 | 1.06 | 0.986 | 1.01 | 0.975 | 0.575 | 0.899 | 0.799 | 0.724
NCI-H727 | 0.924 | 0.855 | 0.818 | 0.921 | 0.936 | 0.678 | 0.381 | 0.389 | 0.381 | 0.295 | 0.288
NCI-H838 | 0.82 | 0.859 | 0.914 | 0.837 | 0.909 | 0.873 | 0.855 | 0.527 | 0.615 | 0.763 | 0.594
NCI-H1299 | 1.01 | 1.01 | 1.02 | 1.05 | 1.02 | 1.04 | 1.04 | – | 0.897 | 0.818 | 0.584
NCI-H1355 | 0.933 | 0.888 | 0.899 | 0.692 | 0.824 | 0.921 | 0.796 | 0.419 | 0.542 | 0.653 | 0.583
NCI-H1395 | 0.818 | 0.894 | 0.632 | 0.878 | 0.785 | 1.03 | 0.83 | 1.03 | 0.69 | 0.67 | 0.523
NCI-H1437 | 1.06 | 0.998 | 0.882 | 1.05 | 1.04 | 0.959 | 0.742 | 0.535 | 0.478 | 0.388 | 0.361

Cell Line | relative viability ([1]; 0.02 µM) | relative viability ([1]; 0.06325 µM) | relative viability ([1]; 0.2 µM) | relative viability ([1]; 0.6325 µM) | relative viability ([1]; 2 µM) | relative viability (Trametinib; 0.0025 µM) | relative viability (Trametinib; 0.007906 µM) | relative viability (Trametinib; 0.02 µM, anchor plate) | relative viability (Trametinib; 0.025 µM) | relative viability (Trametinib; 0.07906 µM) | relative viability (Trametinib; 0.25 µM)
NCI-H1563 | 1.08 | 1 | 0.99 | 1.05 | 0.992 | 0.983 | 0.782 | – | 0.952 | 0.938 | 0.723
NCI-H1623 | 0.815 | 1.02 | 0.735 | 0.85 | 0.912 | 0.839 | 0.74 | – | 0.552 | 0.569 | 0.523
NCI-H1648 | 0.603 | 0.885 | 0.812 | 0.601 | 0.671 | 0.776 | 0.864 | 0.505 | 0.809 | 0.541 | 0.455
NCI-H1650 | 1.03 | 0.923 | 0.685 | 0.794 | 0.914 | 0.902 | 0.898 | 0.583 | 0.827 | 0.599 | 0.264
NCI-H1651 | 1.07 | 0.961 | 0.957 | 0.945 | 1.06 | 0.942 | 0.958 | 0.837 | 0.851 | 0.837 | 0.691
NCI-H1666 | 1.09 | 0.938 | 0.99 | 0.924 | 0.967 | 0.972 | 0.931 | 0.864 | 0.892 | 0.724 | 0.617
NCI-H1703 | 0.943 | 0.827 | 0.8 | 0.9 | 0.776 | 0.778 | 0.906 | – | 0.825 | 0.875 | 0.684
NCI-H1734 | 0.971 | 0.939 | – | 1.05 | 1.06 | 0.959 | 0.92 | 0.717 | – | 0.911 | 0.41
NCI-H1755 | 0.968 | 0.991 | 1.05 | 0.914 | 0.891 | 0.886 | 0.879 | 0.773 | 0.83 | 0.885 | 0.842
NCI-H1792 | 0.88 | 0.979 | 0.69 | 0.829 | 0.957 | 0.844 | 0.856 | 0.475 | 0.477 | 0.387 | 0.281
NCI-H1793 | 1.02 | 1.1 | 0.737 | 0.79 | 0.918 | 0.59 | 0.611 | 0.429 | 0.298 | 0.338 | 0.254
NCI-H1915 | 0.964 | 0.934 | 0.97 | 1.09 | 1.05 | 1.05 | 0.737 | 0.3 | 0.54 | 0.423 | 0.353
NCI-H1944 | 0.903 | 0.948 | – | 0.989 | 0.936 | 0.989 | 0.672 | 0.427 | 0.558 | 0.487 | 0.363
NCI-H1975 | 1.03 | 0.898 | 0.887 | 0.845 | 0.677 | 0.883 | 0.76 | 0.374 | 0.754 | 0.431 | 0.301
NCI-H1993 | 0.927 | 0.84 | 0.825 | 0.671 | 0.814 | 0.698 | 0.732 | 0.54 | 0.548 | 0.693 | 0.628
NCI-H2009 | 0.975 | 0.994 | 1.02 | 1.05 | 1.05 | 0.864 | 0.647 | 0.297 | 0.384 | 0.355 | 0.331
